# In patent US9850206B2, “S1P and/or ATX modulating agents” (BIOGEN MA INC., priority 2012, dated 2017):
# Where two headings read alike, the source gives them in different places.
# What was measured:
# S1P4 = biological target: T1, S1P4 (Homo sapiens, UniProt O95977); assay: S1P receptor activity assay (calcium flux, FLIPR TETRA), S1P4; type: cell-based
# T1 sequence (O95977 1-384): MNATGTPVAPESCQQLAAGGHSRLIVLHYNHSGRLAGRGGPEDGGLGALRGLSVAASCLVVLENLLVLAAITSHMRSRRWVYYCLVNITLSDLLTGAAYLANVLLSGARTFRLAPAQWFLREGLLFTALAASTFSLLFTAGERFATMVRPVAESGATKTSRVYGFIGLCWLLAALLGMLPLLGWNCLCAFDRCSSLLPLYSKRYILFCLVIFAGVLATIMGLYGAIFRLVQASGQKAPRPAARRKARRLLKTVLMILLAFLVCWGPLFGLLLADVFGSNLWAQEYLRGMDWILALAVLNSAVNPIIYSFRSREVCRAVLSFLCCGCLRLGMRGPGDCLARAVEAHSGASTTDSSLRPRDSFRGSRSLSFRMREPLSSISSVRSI
# Text: (§1) Agonist percentage activation determinations were obtained by assaying sample compounds and referencing the Emax control for each receptor profiled. Antagonist percentage inhibition determinations were obtained by assaying sample compounds and referencing the control EC80 wells for each receptor profiled. The samples were run using a “Single Addition” assay protocol for the agonist and antagonist assay run. The protocol design was as follows:
# (§2) Master stock solution: Unless specified otherwise, all sample compounds were diluted in 100% anhydrous DMSO including all serial dilutions. All control wells contained identical solvent final concentrations as did the sample compound wells.
# (§3) Compound plate for assay: The sample compounds were transferred from a master stock solution into a daughter plate that was used in the assay. Each sample compound was diluted into assay buffer (1×HBSS with 20 mM HEPES and 2.5 mM Probenecid) at an appropriate concentration to obtain final concentrations.
# (§4) Sample compounds were plated in an eight-point, four-fold dilution series in duplicate with a top concentration of 10 μM. The concentrations described here reflect the final concentration of the compounds during the antagonist assay.
# (§5) Reference agonists were handled as mentioned above serving as assay control. The reference agonists were handled as described above for Emax.
# (§6) Assay was read for 180 seconds using the […] (This assay run added sample compounds and reference agonist to respective wells). At the completion of the first “Single Addition” assay run, assay plate was removed from the […] and placed at 25° C. for seven (7) minutes.
# (§7) Using the EC80 values determined during the agonist assay, stimulated all pre-incubated sample compound and reference antagonist (if applicable) wells with EC80 of reference agonist. Read for 180 seconds using the […] (This assay added reference agonist to respective wells—then fluorescence measurements were collected to calculate percentage inhibition values).
# (§8) All plates were subjected to appropriate baseline corrections. Once baseline corrections were processed, maximum fluorescence values were exported and data manipulated to calculate percentage activation, percentage inhibition and Z′.
# Human ATX protein = biological target: T2, Human ATX protein (Homo sapiens, UniProt Q13822); assay: Autotaxin (ATX) FRET assay with FS-3 substrate; type: biochemical; settings: FS-3 2 μM, ATX 1.0 μg/mL, 2 hours at room temperature; read-out: IC50 (ATX)
# T2 construct: made in house
# Text: ATX (Autotaxin) is a 125 KDa glycoprotein with lysophospholipase D (LPLD) activity that generates the bioactive lipid lysophosphatidic acid (LPA) from lysophosphatidylcholine (LPC). The ATX biochemical assay utilizes a FRET (fluorescence resonance energy transfer) technology platform. […] ATX catalyzes the hydrolysis of the substrate which separates the dabsyl quencher from the fluorescein reporter, which becomes fluorescent. The reaction is monitored by a SpectraMax M5 (Molecular Devices, Sunnyvale, Calif.) with at excitation wavelength 485 nm and emission wavelength 535 nm.
# Fatty acid free-BSA (Sigma A8806): 10 mg/mL in H2O, stored at 4° C.
# 2×ATX assay buffer: 100 mM Tris, 280 mM NaCl, 10 mM KCl, 2 mM CaCl2, 2 mM MgCl2, pH 7.4.
# Human ATX protein: expressed and purified in house. Stored at −80° C.
# Substrate FS-3 (Echelon, L-2000): 100 μg in 77.74 μL H2O (1 mM stock), stored at −20° C.
# Compound dilution—All compounds were provided at 10 mM in 100% DMSO. In the first well, 2 μL of 10 mM compound was added to 78 μL of DMSO (1:40 dilution). In subsequent wells 3-fold dilution (total 10 dilutions) were performed.
# 1×ATX assay buffer was made up with a final concentration of 1 mg/mL fatty acid free-BSA using 2×ATX assay buffer, 10 mg/ml fatty acid free-BSA and ddH2O.
# 38 μL was added per well to the assay plate. The final concentration of ATX in the reaction as 1.0 μg/mL.
# 2 μL per well of compounds was transferred to provide the desired concentration. The plate was centrifuged, then incubated at room temperature for 30 minutes on the shaker.
# FS-3 was diluted with 1×ATX assay buffer to a concentration of FS-3 of 10 μM (5×). Then, 10 μL was added per well to the assay plate. The final concentration of FS-3 in the reaction was 2 μM. The plate was centrifuged. The plate was kept shaking at room temperature for 2 hours. Because FS-3 substrate is light sensitive, plates were kept covered and protected from light.
# S1P5 = S1P5 (Homo sapiens, UniProt Q9H228); assay: S1P receptor activity assay (calcium flux, FLIPR TETRA), S1P5; type: cell-based; settings: calcium flux, top concentration 10 μM; read-out: IC50 for S1P5
# S1P5, sequence (Q9H228 whole entry): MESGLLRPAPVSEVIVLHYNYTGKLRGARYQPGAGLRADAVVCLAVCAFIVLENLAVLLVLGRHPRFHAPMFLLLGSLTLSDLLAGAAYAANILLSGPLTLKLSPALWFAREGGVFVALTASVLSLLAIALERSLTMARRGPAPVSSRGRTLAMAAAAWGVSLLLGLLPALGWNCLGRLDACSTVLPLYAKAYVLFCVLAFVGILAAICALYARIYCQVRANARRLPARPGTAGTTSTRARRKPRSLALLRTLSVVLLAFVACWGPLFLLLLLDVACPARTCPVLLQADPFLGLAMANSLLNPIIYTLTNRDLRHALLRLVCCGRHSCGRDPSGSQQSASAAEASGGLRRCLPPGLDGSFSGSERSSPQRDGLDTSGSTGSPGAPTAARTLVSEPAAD
# Text: as §1, §2, §3, §4, §5, §6, §7, §8
# S1P1 = S1P1 (Homo sapiens, UniProt P21453); assay: S1P receptor activity assay (calcium flux, FLIPR TETRA), S1P1; type: cell-based
# S1P1, sequence (P21453 whole entry): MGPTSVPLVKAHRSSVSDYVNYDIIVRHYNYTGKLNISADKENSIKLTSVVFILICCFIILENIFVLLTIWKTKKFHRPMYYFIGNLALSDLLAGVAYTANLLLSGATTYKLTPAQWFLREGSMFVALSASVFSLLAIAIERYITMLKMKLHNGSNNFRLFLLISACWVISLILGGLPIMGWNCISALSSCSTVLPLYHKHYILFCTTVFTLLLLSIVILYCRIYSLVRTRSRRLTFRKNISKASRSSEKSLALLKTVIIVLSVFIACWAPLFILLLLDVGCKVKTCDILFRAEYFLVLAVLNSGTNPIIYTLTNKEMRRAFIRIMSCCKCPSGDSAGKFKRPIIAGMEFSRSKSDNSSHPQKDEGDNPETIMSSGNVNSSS
# Text: as §1, §2, §3, §4, §5, §6, §7, §8
# [1] = calcium flux, top concentration 10 μM, the >5 μM sentence says only 'for S1P4', read-out: IC50 for S1P4 agonist activity
# [2] = calcium flux, top concentration 10 μM, the >5 μM sentence says only 'for S1P1', read-out: IC50 for S1P1 agonist activity
IC50 (S1P4; [1]) [µM],IC50 (Human ATX protein) [µM],IC50 (S1P5) [µM],IC50 (S1P1; [2]) [µM],SMILES,IC50 (S1P4) [µM],IC50 (S1P1) [µM]
2 to 5,5 to 10,> 5,> 5,"O=C(O)CCCN1CCC(c2ccc(OC3CCC4(CCCC4)CC3)cc2)CC1 [Example 42, 4-(4-(4-(Spiro[4.5]decan-8-yloxy)phenyl)piperidin-1-yl)butanoic acid]",–,–
2 to 5,5 to 10,> 5,> 5,"CCCCCCCCOc1ccc(C2CCCN(C3CCC(C(=O)O)CC3)C2)cc1 (centres unmarked) [Example 26, 4-(3-(4-(Octyloxy)phenyl)piperidin-1-yl)cyclohexanecarboxylic acid]",–,–
2 to 5,5 to 10,> 5,> 5,"CCCCCCCCOc1ccc(N2CCN(CCC(=O)O)CC2)nn1 [Example 20, 3-(4-(6-(Octyloxy)pyridazin-3-yl)piperazin-1-yl)propanoic acid]",–,–
≤ 2,5 to 10,> 5,> 5,"CCCCCCCCOc1cccc(C2CCCN(CCCC(=O)O)C2)c1 (centres unmarked) [Example 6, 4-(3-(3-(Octyloxy)phenyl)piperidin-1-yl)butanoic acid]",–,–
≤ 2,5 to 10,> 5,–,"CC(C)(C)[C@H]1CC[C@H](Oc2cccc(C3CCCN(CCC(=O)O)C3)c2)CC1 (stereo partly drawn) [Example 7, 3-(3-(3-((trans-4-(tert-Butyl)cyclohexyl)oxy)phenyl)piperidin-1-yl)propanoic acid]",–,–
> 5,> 10,> 5,> 5,"CC[C@H]1CC[C@H](Oc2ccc(C3CCN(CCC(=O)O)CC3)cc2)CC1 [Example 28, 3-(4-(4-((trans-4-ethylcyclohexyl)oxy)phenyl)piperidin-1-yl)propanoic acid]",–,–
> 5,5 to 10,–,> 5,"CCCCCCCCOc1ccc(NC2CCCN(CCC(=O)O)C2)nc1 (centres unmarked) [Example 11, 3-(3-(5-(Octyloxy)pyridin-2-ylamino)piperidin-1-yl)propanoic acid]",–,–
≤ 2,5 to 10,> 5,> 5,"CCCCCCCCOc1cccc(C2CCCN(CCC(=O)O)C2)c1 (centres unmarked) [Example 5, 3-(3-(3-(Octyloxy)phenyl)piperidin-1-yl)propanoic acid]",–,–
≤ 2,–,–,> 5,"CC(C)(C)[C@H]1CC[C@H](Oc2ccc(C3CCCN(C4CCC(C(=O)O)CC4)C3)cc2)CC1 (stereo partly drawn) [Example 25, 4-(3-(4-((trans-4-(tert-Butyl)cyclohexyl)oxy)phenyl)piperidin-1-yl)cyclohexanecarboxylic acid]",–,–
≤ 2,5 to 10,> 5,–,"CC(C)(C)[C@H]1CC[C@H](Oc2cccc(C3CCCN(CCCC(=O)O)C3)c2)CC1 (stereo partly drawn) [Example 8, 4-(3-(3-((trans-4-(tert-Butyl)cyclohexyl)oxy)phenyl)piperidin-1-yl)butanoic acid]",–,–
≤ 2,≤ 5,> 5,> 5,"CC(C)(C)[C@H]1CC[C@H](Oc2ccc(N3CCN(CC45CCC(C(=O)O)(CC4)CC5)CC3)cc2)CC1 [Example 19, 4-((4-(4-((trans-4-(tert-Butyl)cyclohexyl)oxy)phenyl)piperazin-1-yl)methyl)bicyclo[2.2.2]octane-1-carboxylic acid]",–,–
≤ 5,–,> 5,> 5,"CC(C)(C)[C@H]1CC[C@H](Oc2ccc(C3CCN(CCCCC(=O)O)CC3)cc2)CC1 [Example 50, 5-(4-(4-((trans-4-(tert-Butyl)cyclohexyl)oxy)phenyl)piperidin-1-yl)pentanoic acid]",–,–
≤ 2,> 10,–,> 5,"CC(C)(C)[C@H]1CC[C@H](Oc2ccc(NC3CCCN(CCC(=O)O)C3)nc2)CC1 (relative stereo) [Example 12, 3-(3-(5-(trans-4-tert-butylcyclohexyloxy)pyridin-2-ylamino)piperidin-1-yl)propanoic acid]",–,–
–,5 to 10,–,–,"CC(C)(C)[C@H]1CC[C@H](Oc2ccc(C3CCCN(CCC(=O)O)C3)cc2)CC1 (stereo partly drawn) [Example 3, 3-(3-(4-(trans-4-tert-Butylcyclohexyloxy)phenyl)piperidin-1-yl)propanoic acid]",–,–
≤ 2,–,> 5,> 5,"CC(C)(C)[C@H]1CC[C@H](Oc2ccc(C3CCN(CCCC(=O)O)C3)cc2)CC1 (stereo partly drawn) [Example 24, 4-(3-(4-((trans-4-(tert-Butyl)cyclohexyl)oxy)phenyl)pyrrolidin-1-yl)butanoic acid]",–,–
≤ 2,–,> 5,> 5,"CCCCCCCCOc1ccc(C2CCCN(CCCC(=O)O)C2)cc1 (centres unmarked) [Example 2, 4-(3-(4-(Octyloxy)phenyl)piperidin-1-yl)butanoic acid]",–,–
≤ 2,–,> 5,> 5,"CC(C)(C)[C@H]1CC[C@H](Oc2ccc(C3CCN(CCC(=O)O)C3)cc2)CC1 (stereo partly drawn) [Example 23, 3-(3-(4-((trans-4-(tert-Butyl)cyclohexyl)oxy)phenyl)pyrrolidin-1-yl)propanoic acid]",–,–
> 5,–,> 5,> 5,"CCCCCCCCOc1ccc(C2CCCN(CCC(=O)O)C2)cc1 (centres unmarked) [Example 1, 3-(3-(4-(Octyloxy)phenyl)piperidin-1-yl)propanoic acid]",–,–
2 to 5,> 10,–,> 5,"CC(C)(C)[C@H]1CC[C@H](Oc2ccc(NC3CCCN(CCC(=O)O)C3)cc2)CC1 (relative stereo) [Example 13, 3-(3-((4-((trans-4-(tert-Butyl)cyclohexyl)oxy)phenyl)amino)piperidin-1-yl)propanoic acid]",–,–
> 5,–,> 5,> 5,"CCCCCCCCOc1ccc(N2CCN(CCC(=O)O)CC2)nc1 [Example 22, 3-(4-(5-(Octyloxy)pyridin-2-yl)piperazin-1-yl)propanoic acid]",–,–

SMILES,IC50 (S1P4; [1]) [µM],IC50 (Human ATX protein) [µM],IC50 (S1P5) [µM],IC50 (S1P1; [2]) [µM],IC50 (S1P4) [µM],IC50 (S1P1) [µM]
"CC[C@H]1CC[C@H](Oc2ccc(C3=CCN(CCCC(=O)O)CC3)cc2)CC1 [Example 29, 4-(4-(4-((trans-4-Ethylcyclohexyl)oxy)phenyl)-5,6-dihydropyridin-1(2H)-yl)butanoic acid]",–,> 10,> 5,–,≤ 2,> 5
"CC(C)(C)[C@H]1CC[C@H](Oc2ccc(C3=CCN(CCCCC(=O)O)CC3)cc2)CC1 [Example 49, 5-(4-(4-((trans-4-(tert-Butyl)cyclohexyl)oxy)phenyl)-5,6-dihydropyridin-1(2H)-yl)pentanoic acid]",–,–,> 5,–,≤ 2,> 5
